Laboratory results taken from patent publication US9796733B2, “Imidazo-pyrazine derivatives useful as soluble guanylate cyclase activators” (Merck Sharp & Dohme Corp., priority 2014, dated 2017).

Target: T1, sGC α1/β1 heterodimer (Homo sapiens, UniProt Q02108+Q02153)
T1 construct: expressed in transfected cells; host or cells: CHO-K1 (clone #7, CHO-K1/sGC)
T1 sequence (Q02108 1-690): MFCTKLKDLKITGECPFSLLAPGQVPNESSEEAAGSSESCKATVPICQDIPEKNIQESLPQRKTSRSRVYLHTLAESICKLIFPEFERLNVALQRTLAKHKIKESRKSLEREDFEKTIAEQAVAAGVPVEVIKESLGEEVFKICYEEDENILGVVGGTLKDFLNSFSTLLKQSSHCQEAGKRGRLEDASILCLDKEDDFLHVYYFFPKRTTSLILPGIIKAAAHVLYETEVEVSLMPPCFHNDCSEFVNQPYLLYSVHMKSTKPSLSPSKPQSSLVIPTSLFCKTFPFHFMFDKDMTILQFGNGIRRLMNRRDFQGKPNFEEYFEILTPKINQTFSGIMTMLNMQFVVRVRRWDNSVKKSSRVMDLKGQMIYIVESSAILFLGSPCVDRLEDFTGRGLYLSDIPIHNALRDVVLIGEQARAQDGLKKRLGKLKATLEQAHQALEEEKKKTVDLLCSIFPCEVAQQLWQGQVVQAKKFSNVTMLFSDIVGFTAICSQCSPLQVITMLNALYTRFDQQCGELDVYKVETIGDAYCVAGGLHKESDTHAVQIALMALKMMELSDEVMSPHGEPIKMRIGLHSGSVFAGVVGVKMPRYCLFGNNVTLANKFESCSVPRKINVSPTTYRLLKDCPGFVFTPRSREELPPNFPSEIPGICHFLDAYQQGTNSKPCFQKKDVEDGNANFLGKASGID
T1 sequence (Q02153 1-619): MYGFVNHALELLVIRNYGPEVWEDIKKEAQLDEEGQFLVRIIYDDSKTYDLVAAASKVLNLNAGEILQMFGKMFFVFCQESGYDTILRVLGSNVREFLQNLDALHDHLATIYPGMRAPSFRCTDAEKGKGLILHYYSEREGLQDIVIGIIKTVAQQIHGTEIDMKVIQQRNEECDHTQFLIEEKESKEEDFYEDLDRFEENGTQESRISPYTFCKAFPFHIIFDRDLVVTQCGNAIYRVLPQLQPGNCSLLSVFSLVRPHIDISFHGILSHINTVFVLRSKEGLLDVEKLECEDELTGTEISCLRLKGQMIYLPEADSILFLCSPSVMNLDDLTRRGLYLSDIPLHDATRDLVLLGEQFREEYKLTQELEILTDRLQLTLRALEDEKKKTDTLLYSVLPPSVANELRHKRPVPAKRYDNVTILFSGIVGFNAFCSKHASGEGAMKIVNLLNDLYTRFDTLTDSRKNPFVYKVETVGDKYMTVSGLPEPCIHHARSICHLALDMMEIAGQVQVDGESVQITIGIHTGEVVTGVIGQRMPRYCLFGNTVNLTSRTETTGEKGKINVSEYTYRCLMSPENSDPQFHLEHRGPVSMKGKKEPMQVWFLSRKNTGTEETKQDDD
Assay: Cell-based sGC functional assay (CASA assay): cGMP generation in CHO-K1/sGC cells, HTRF detection
Conditions: for Emax: CHO-K1, percent activation relative to standard Compound A in CHO-K1/sGC cells, read-out: % Act.; for EC50: inflection point (IP) of cGMP generation in CHO-K1/sGC cells, 4P fit, activity expressed as percentage of Compound A
Method in brief: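 Stable CHO-K1/sGC cells in EBSS buffer with 5 mM MgCl2, 0.05% BSA and 0.5 mM IBMX were incubated with compound (2.5% DMSO final) ±1 μM DETA-NO for 1 hr at 37° C. cGMP was measured by HTRF. Activation is expressed as % of reference HDA Compound A maximum, with IP and max fold induction from a 4P fit.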

Row | SMILES | Emax [%] | EC50 [nM]
1 | COc1ccc(-c2nc(-c3nc(N)c4c(n3)NC(=O)C4(C)c3ccc(F)cc3)cn3ccnc23)cc1 (stereo not shown) [Example 7A, 4-amino-5-(4-fluorophenyl)-2-(8-(4-methoxyphenyl)imidazo[1,2-a]pyrazin-6-yl)-5-methyl-5H-pyrrolo[2,3-d]pyrimidin-6(7H)-one] | 63 | 583
2 | CC1(c2cc(F)cc(F)c2)C(=O)Nc2nc(-c3cn4ccnc4c(CCC(F)(F)F)n3)nc(N)c21 (stereo not shown) [Example 195B, 4-amino-5-(3,5-difluorophenyl)-5-methyl-2-(8-(3,3,3-trifluoropropyl)imidazo[1,2-a]pyrazin-6-yl)-5H-pyrrolo[2,3-d]pyrimidin-6(7H)-one] | 114 | 312
3 | CC1(c2ccc(Cl)cc2)C(=O)Nc2nc(-c3cn4ccnc4c(Cc4cccc(Cl)c4)n3)nc(N)c21 (stereo not shown) [Example 95A, 4-amino-2-(8-(3-chlorobenzyl)imidazo[1,2-a]pyrazin-6-yl)-5-(4-chlorophenyl)-5-methyl-5H-pyrrolo[2,3-d]pyrimidin-6(7H)-one] | 109 | 4
4 | CC1(c2ccc(OC(F)F)cn2)C(=O)Nc2nc(-c3cn4ccnc4c(CC4CCC4)n3)nc(N)c21 (stereo not shown) [Example 117A, 4-amino-2-(8-(cyclobutylmethyl)imidazo [1,2-a]pyrazin-6-yl)-5-(5-(difluoromethoxy)pyridin-2-yl)-5-methyl-5H-pyrrolo[2,3-d]pyrimidin-6(7H)-one] | 103 | 33
5 | CC1(c2ccc(F)cc2)C(=O)Nc2nc(-c3cn4ccnc4c(CCC(F)(F)C(F)(F)F)n3)nc(N3CCC3)c21 (stereo not shown) [Example 306A, 4-(azetidin-1-yl)-5-(4-fluorophenyl)-5-methyl-2-(8-(3,3,4,4,4-pentafluorobutyl)imidazo[1,2-a]pyrazin-6-yl)-5H-pyrrolo[2,3-d]pyrimidin-6(7H)-one] | 108 | 108
6 | CN1CCN(c2nc(-c3cn4ccnc4c(CCC(F)(F)C(F)(F)F)n3)nc3c2C(C)(c2ccc(F)cn2)C(=O)N3)CC1 (stereo not shown) [Example 295B, 5-(5-fluoropyridin-2-yl)-5-methyl-4-(4-methylpiperazin-1-yl)-2-(8-(3,3,4,4,4-pentafluorobutyl)imidazo[1,2-a]pyrazin-6-yl)-5H-pyrrolo[2,3-d]pyrimidin-6(7H)-one] | 96 | 671
7 | CC1(c2cccc(F)c2)C(=O)Nc2nc(-c3cn4ccnc4c(CCC(F)(F)F)n3)nc(N)c21 (stereo not shown) [Example 191A, 4-amino-5-(3-fluorophenyl)-5-methyl-2-(8-(3,3,3-trifluoropropyl)imidazo[1,2-a]pyrazin-6-yl)-5H-pyrrolo[2,3-d]pyrimidin-6(7H)-one] | 90 | 130
8 | CCC1(c2ccc(F)cc2)C(=O)Nc2nc(-c3cn4c(F)cnc4c(CCC(F)(F)C(F)(F)F)n3)nc(N)c21 (stereo not shown) [Example 276A, 4-Amino-5-ethyl-2-(3-fluoro-8-(3,3,4,4,4-pentafluorobutyl)imidazo[1,2-a]pyrazin-6-yl)-5-(4-fluorophenyl)-5H-pyrrolo[2,3-d]pyrimidin-6(7H)-one] | 80 | 22
9 | CC1(c2ccc(C(F)(F)F)cc2)C(=O)Nc2nc(-c3cn4ccnc4c(CCC(F)(F)C(F)(F)F)n3)nc(N)c21 (stereo not shown) [Example 237B, 4-amino-5-methyl-2-(8-(3,3,4,4,4-pentafluorobutyl)imidazo [1,2-a]pyrazin-6-yl)-5-(4-(trifluoromethyl)phenyl)-5H-pyrrolo[2,3-d]pyrimidin-6(7H)-one] | 119 | 53
10 | CN(C)C(=O)c1cccc(C2(C)C(=O)Nc3nc(-c4cn5ccnc5c(CCC(F)(F)C(F)(F)F)n4)nc(N)c32)c1 (stereo not shown) [Example 271B, 3-(4-Amino-5-methyl-6-oxo-2-(8-(3,3,4,4,4-pentafluorobutyl)imidazo[1,2-a]pyrazin-6-yl)-6,7-dihydro-5H-pyrrolo[2,3-d]pyrimidin-5-yl)-N,N-dimethylbenzamide] | 95 | 622
11 | CN(C)c1nc(-c2cn3ccnc3c(CCC(F)(F)C(F)(F)F)n2)nc2c1C(C)(c1ccc(F)cc1)C(=O)N2 (stereo not shown) [Example 308A, 4-(dimethylamino)-5-(4-fluorophenyl)-5-methyl-2-(8-(3,3,4,4,4-pentafluorobutyl)imidazo[1,2-a]pyrazin-6-yl)-5H-pyrrolo[2,3-d]pyrimidin-6(7H)-one] | 126 | 281
12 | CCn1cc(C2(C)C(=O)Nc3nc(-c4cn5ccnc5c(Cc5ccc(F)cc5)n4)nc(N)c32)nn1 (stereo not shown) [Example 64A, 4-amino-5-(1-ethyl-1H-1,2,3-triazol-4-yl)-2-(8-(4-fluorobenzyl)imidazo[1,2-a]pyrazin-6-yl)-5-methyl-5H-pyrrolo[2,3-d]pyrimidin-6(7H)-one] | 115 | 196
13 | CC(C)(C)CCc1nc(-c2nc(N)c3c(n2)NC(=O)C3(C)c2ccc(F)cn2)cn2ccnc12 (stereo not shown) [Example 122B, 4-amino-2-(8-(3,3-dimethylbutyl)imidazo[1,2-a]pyrazin-6-yl)-5-(5-fluoropyridin-2-yl)-5-methyl-5H-pyrrolo[2,3-d]pyrimidin-6(7H)-one] | 119 | 92
14 | Cc1cc(F)cnc1C1(C2CC2)C(=O)Nc2nc(-c3cn4ccnc4c(CCC(F)(F)C(F)(F)F)n3)nc(N)c21 (single isomer, unassigned) [Example 375B, 4-amino-5-cyclopropyl-5-(5-fluoro-3-methylpyridin-2-yl)-2-(8-(3,3,4,4,4-pentafluorobutyl)imidazo[1,2-a]pyrazin-6-yl)-5H-pyrrolo[2,3-d]pyrimidin-6(7H)-one] | 41 | 931
15 | Nc1nc(-c2cn3ccnc3c(CCC(F)(F)F)n2)nc2c1C(c1ccc(Br)cc1)(C1CC1)C(=O)N2 (stereo not shown) [Example 200A, 4-amino-5-(4-bromophenyl)-5-cyclopropyl-2-(8-(3,3,3-trifluoropropyl)imidazo[1,2-a]pyrazin-6-yl)-5H-pyrrolo[2,3-d]pyrimidin-6(7H)-one] | 96 | 457
16 | CC1(c2ccc(F)cc2F)C(=O)Nc2nc(-c3cn4ccnc4c(CCC(F)(F)F)n3)nc(N)c21 (stereo not shown) [Example 180A, 4-amino-5-(2,4-difluorophenyl)-5-methyl-2-(8-(3,3,3-trifluoropropyl)imidazo[1,2-a]pyrazin-6-yl)-5H-pyrrolo[2,3-d]pyrimidin-6(7H)-one] | 115 | 39
17 | CC1(c2ccc(F)cc2)C(=O)Nc2nc(-c3cn4ccnc4c(Cc4c(F)ccc(F)c4F)n3)nc(N)c21 (stereo not shown) [Example 98A, 4-amino-5-(4-fluorophenyl)-5-methyl-2-(8-(2,3,6-trifluorobenzyl)imidazo[1,2-a]pyrazin-6-yl)-5H-pyrrolo[2,3-d]pyrimidin-6(7H)-one] | 110 | 13
18 | CCCCc1nc(-c2nc(N)c3c(n2)NC(=O)C3(c2cnc(C)cn2)C2CC2)cn2ccnc12 (single isomer, unassigned) [Example 352B, 4-amino-2-(8-butylimidazo[1,2-a]pyrazin-6-yl)-5-cyclopropyl-5-(5-methylpyrazin-2-yl)-5H-pyrrolo[2,3-d]pyrimidin-6(7H)-one] | 96 | 302
19 | CC1(c2ccc(F)cc2)C(=O)Nc2nc(-c3cn4ccnc4c(CCC(F)(F)C(F)(F)F)n3)nc(N3CCN(S(C)(=O)=O)CC3)c21 (stereo not shown) [Example 299A, 5-(4-fluorophenyl)-5-methyl-4-(4-(methylsulfonyl)piperazin-1-yl)-2-(8-(3,3,4,4,4-pentafluorobutyl)imidazo[1,2-a]pyrazin-6-yl)-5H-pyrrolo[2,3-d]pyrimidin-6(7H)-one] | 114 | 624
20 | Cc1ccc(C2(C)C(=O)Nc3nc(-c4cn5ccnc5c(CCC(F)(F)C(F)(F)F)n4)nc(N)c32)cc1 (stereo not shown) [Example 230B, 4-amino-5-methyl-2-(8-(3,3,4,4,4-pentafluorobutyl)imidazo [1,2-a]pyrazin-6-yl)-5-(p-tolyl)-5H-pyrrolo[2,3-d]pyrimidin-6(7H)-one] | 117 | 32
